In one experiment the test system is NFS-60. The experiment is described as follows: Antiproliferative activity against mouse NFS-60 cells transfected with human ETV6-CSF1R assessed as reduction in cell viability measured after 72 hrs by MTS method. The conditions noted are these: NFS-60, 72 h. The experiment is classed as functional, cell-based. In general terms: Tetrazolium dyes change colour on reduction, which living cells bring about.

The target in experiment [1] is T1, Aurora kinase A (Homo sapiens) (UniProt O14965).
T1 sequence (whole entry): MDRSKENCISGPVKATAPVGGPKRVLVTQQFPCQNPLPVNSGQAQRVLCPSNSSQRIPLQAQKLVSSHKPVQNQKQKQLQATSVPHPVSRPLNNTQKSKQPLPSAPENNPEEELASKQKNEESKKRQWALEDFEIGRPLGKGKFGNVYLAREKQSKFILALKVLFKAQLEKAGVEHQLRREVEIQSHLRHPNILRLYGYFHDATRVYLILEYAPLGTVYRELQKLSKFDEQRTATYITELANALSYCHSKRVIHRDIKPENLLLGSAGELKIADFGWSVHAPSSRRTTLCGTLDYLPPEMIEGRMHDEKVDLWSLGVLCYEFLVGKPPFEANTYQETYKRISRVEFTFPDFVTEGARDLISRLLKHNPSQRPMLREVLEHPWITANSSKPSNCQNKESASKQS
Nature of the experiment: Inhibition of recombinant GST-AURKA (residues Ser123 to Ser401) (unknown origin) expressed in Sf9 insect cells using tetra(-LRRASLG) peptide as substrate at 1 uM incubated for 90 mins by ATP Kinase Glo assay. For orientation: Kinase-Glo reads ATP consumption through a luciferase reaction.

A further experiment concerns the target Aurora kinase B (Homo sapiens, UniProt Q96GD4). Nature of the experiment: Inhibition of human recombinant full length GST-AURKB using tetra(-LRRASLG) peptide as substrate at 0.1 uM incubated for 20 mins by ATP Kinase Glo assay. The experiment is classed as biochemical. The conditions noted are these: Sf9.
The subject of a further experiment is BaF3. Nature of the experiment: Antiproliferative activity against mouse BaF3 cells transfected with human ETV6-CSF1R assessed as reduction in cell viability measured after 72 hrs by MTS method. Particulars: BaF3, 72 h.
Experiment [2] has as its target Macrophage colony-stimulating factor 1 receptor (Homo sapiens, UniProt P07333). The experiment is described as follows: Inhibition of human recombinant GST-CSF1R (residues L534 to C972) expressed in Sf9 insect cells using poly(Glu,Tyr) as substrate incubated for 20 mins by ATP Kinase Glo assay.

Molecules are shown by their SMILES.

As a reminder, the EC50 is the midpoint of the concentration-response curve. The inhibition is the share of the control response that was lost under treatment. By IC50 is commonly meant the concentration that inhibits the measured activity by half.

Sequence of Macrophage colony-stimulating factor 1 receptor (P07333 whole entry, the tested form may be a part): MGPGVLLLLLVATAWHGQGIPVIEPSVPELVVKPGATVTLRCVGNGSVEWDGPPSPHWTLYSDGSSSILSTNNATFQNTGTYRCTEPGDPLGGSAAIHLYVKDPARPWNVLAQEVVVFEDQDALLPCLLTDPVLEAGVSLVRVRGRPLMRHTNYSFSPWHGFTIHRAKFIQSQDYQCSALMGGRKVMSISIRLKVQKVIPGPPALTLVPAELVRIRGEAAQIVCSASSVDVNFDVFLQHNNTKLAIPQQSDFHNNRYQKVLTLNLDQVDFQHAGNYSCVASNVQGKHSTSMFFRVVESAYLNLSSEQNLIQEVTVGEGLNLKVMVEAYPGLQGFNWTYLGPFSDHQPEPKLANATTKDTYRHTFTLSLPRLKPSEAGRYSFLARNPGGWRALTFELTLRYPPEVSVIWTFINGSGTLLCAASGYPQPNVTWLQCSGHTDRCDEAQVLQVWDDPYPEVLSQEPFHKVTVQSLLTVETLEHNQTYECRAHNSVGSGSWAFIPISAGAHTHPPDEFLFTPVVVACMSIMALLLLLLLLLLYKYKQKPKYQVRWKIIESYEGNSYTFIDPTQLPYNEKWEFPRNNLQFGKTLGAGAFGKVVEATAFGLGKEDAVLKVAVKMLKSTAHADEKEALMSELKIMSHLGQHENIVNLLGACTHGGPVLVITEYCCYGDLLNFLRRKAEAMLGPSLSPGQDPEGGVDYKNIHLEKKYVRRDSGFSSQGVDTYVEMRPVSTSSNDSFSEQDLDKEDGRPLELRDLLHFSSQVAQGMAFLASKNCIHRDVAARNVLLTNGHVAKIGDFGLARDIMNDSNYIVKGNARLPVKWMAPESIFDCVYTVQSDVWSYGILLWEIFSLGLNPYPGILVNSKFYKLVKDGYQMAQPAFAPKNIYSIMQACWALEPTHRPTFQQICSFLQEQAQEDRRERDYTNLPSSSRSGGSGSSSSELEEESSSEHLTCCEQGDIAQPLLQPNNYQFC
Sequence of Aurora kinase B (Q96GD4 whole entry): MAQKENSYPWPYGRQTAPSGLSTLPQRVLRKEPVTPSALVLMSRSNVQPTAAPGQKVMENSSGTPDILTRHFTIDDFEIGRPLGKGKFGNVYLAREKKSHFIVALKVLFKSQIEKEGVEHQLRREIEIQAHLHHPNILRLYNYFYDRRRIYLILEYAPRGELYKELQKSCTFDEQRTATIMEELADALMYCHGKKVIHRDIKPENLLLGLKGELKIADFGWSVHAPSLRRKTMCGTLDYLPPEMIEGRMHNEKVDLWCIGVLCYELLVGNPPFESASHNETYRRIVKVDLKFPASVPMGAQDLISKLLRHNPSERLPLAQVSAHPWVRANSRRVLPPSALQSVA

For the compound `COc1cc(Oc2ccnc3cc(OC)c(OC)cc23)ccc1NC(=O)NC(C)c1nccs1` (configuration not stated), the 50% effective concentration (EC50) in the experiment with NFS-60 worked out at 77 nM; with BaF3, 76 nM. Moreover, the figures for the inhibition (in experiment [1]; at Aurora kinase B) were 42% and 47%, respectively.
`COc1ccc2c(Nc3ccc(NC(=O)Nc4ccccc4)cc3)ncnc2c1`: the inhibition in experiment [1] worked out at 56%; at Aurora kinase B it was 24%. Also, the IC50 in experiment [2] was 124 nM.
In the same order, the values of `COc1ccc2c(Oc3ccc(NC(=O)Nc4ccccc4)cc3)ncnc2c1` are 36%, 48% and 76 nM.
For `CNc1ccc2c(Oc3ccc(NC(=O)Nc4ccccc4)cc3)ncnc2c1`, the inhibition in experiment [1] amounted to 57%; at Aurora kinase B, 76%. For the same compound, the half-maximal inhibitory concentration (IC50) in experiment [2] amounted to 44 nM.
Turning to `CN(C)c1ccc2c(Oc3ccc(NC(=O)Nc4ccccc4)cc3)ncnc2c1`, the values for the EC50 in the experiment on NFS-60 and in the experiment on BaF3 were 92 nM and 66 nM, respectively. Moreover, the figures for the inhibition (in experiment [1]; on Aurora kinase B) were 40% and 61%, respectively. Also, the IC50 in experiment [2] stood at 21 nM.
Consider `COc1cc2ncnc(Oc3ccc(NC(=O)Nc4ccccc4)cc3)c2cc1OC`, for which the inhibition in experiment [1] amounted to 46%. For the same compound, the IC50 in experiment [2] was found to be 30 nM.
Consider `CN(C)c1ccc2c(Oc3ccc(NC(=O)NCc4c(F)c(F)c(F)c(F)c4F)cc3)ncnc2c1`, for which the inhibition is 3% in experiment [1] and 34% on Aurora kinase B. In the experiment with BaF3, the EC50 came to 108 nM. In experiment [2], the IC50 came to 18.6 nM.
Consider `CC(NC(=O)Nc1ccc(Oc2ncnc3cc(N(C)C)ccc23)cc1)c1nccs1` (configuration not stated), for which, in experiment [1], the inhibition came out at 6%. In the experiment on BaF3, the EC50 was 158 nM. Further, in experiment [2], the IC50 stood at 1.41 nM.
Take `Nc1ccc2c(Oc3ccc(NC(=O)Nc4ccccc4)cc3)ncnc2c1`: the inhibition in experiment [1] was found to be 47%; at Aurora kinase B it was 74%. The IC50 in experiment [2] worked out at 58 nM.
In the case of `COc1ccc(CNC(=O)Nc2ccc(Oc3ncnc4cc(N(C)C)ccc34)cc2)cc1OC`, the inhibition in experiment [1] was found to be 4%. The EC50 with BaF3 stood at 133 nM. For the same compound, the IC50 in experiment [2] is 83 nM.
In the case of `CN(C)c1ccc2c(Oc3ccc(NC(=O)NCc4ccc(C#N)cc4)cc3)ncnc2c1`, the EC50 in the experiment on NFS-60 came to 23 nM; in the experiment on BaF3, 14.1 nM. Moreover, the inhibition in experiment [1] was 5%. In experiment [2], the IC50 came to 50 nM.
Take `CN(C)c1ccc2c(Nc3ccc(NC(=O)Nc4ccccc4)cc3)ncnc2c1`: the results for the inhibition (in experiment [1]; at Aurora kinase B) were 33% and 27%, respectively. Moreover, the IC50 in experiment [2] worked out at 243 nM.
As for `CN(C)c1ccc2c(Oc3ccc(NC(=O)Nc4ccc(C(F)(F)F)cc4)cc3)ncnc2c1`, the inhibition was found to be 46% in experiment [1] and 37% on Aurora kinase B. In addition, the EC50 with BaF3 was determined as 49 nM. For the same compound, the IC50 in experiment [2] was found to be 64 nM.
As for `O=C(Nc1ccccc1)Nc1ccc(Oc2ncnc3ccc(N4CCCC4)cc23)cc1`, the inhibition in experiment [1] was found to be 11%. The IC50 in experiment [2] was > 10 nM.
As for `CN(C)c1ccc2c(Oc3ccc(NC(=O)NCc4ccn(C)n4)cc3)ncnc2c1`, in experiment [1], the inhibition worked out at 58%. Besides, in the experiment on BaF3, the EC50 came to 167 nM. Moreover, the IC50 in experiment [2] came to 204 nM.
`CN(C)CCCOc1ccc2c(NCCc3cnc(NC(=O)Nc4cccc(Cl)c4)s3)ncnc2c1`: the IC50 in experiment [2] came out at 19 nM.
On to `CN(C)c1ccc2ncnc(Oc3ccc(NC(=O)Nc4ccccc4)cc3)c2c1`, for which the inhibition in experiment [1] was found to be 29%. Besides, the IC50 in experiment [2] stood at 41 nM.
Regarding `O=C(Nc1ccccc1)Nc1ccc(Oc2ncnc3cc(F)ccc23)cc1`, the results for the inhibition (in experiment [1]; on Aurora kinase B) were 13% and 27%, respectively. In addition, the concentration for half-maximal inhibition (IC50) in experiment [2] is 753 nM.
For the compound `CN(C)c1ccc2c(Oc3ccc(NC(=O)Nc4cccc(C(F)(F)F)c4)cc3)ncnc2c1`, the inhibition in experiment [1] amounted to 35%; at Aurora kinase B, 60%. Moreover, the EC50 in the experiment with BaF3 worked out at 45 nM. The IC50 in experiment [2] is 64 nM.
For `O=C(Nc1ccccc1)Nc1ccc(Oc2ncnc3cc(N4CCCC4)ccc23)cc1`, the inhibition (in experiment [1]; at Aurora kinase B) was 43% throughout. Moreover, the IC50 in experiment [2] worked out at 63 nM.

For the origin of these results see ChEMBL document CHEMBL4842383 (J Med Chem, 2021).
